Measured values taken from US7910576B2, “Pyrrole derivatives as P2Y12 antagonists” (Sanofi-Aventis, priority 2007, dated 2011).

Biological target: T1, human P2Y12 receptor (Homo sapiens, UniProt Q9H244)
T1 construct: expressed in transfected cells; host or cells: Chinese Hamster Ovary (CHO) cells, membrane preparation
Test: Human P2Y12 recombinant cell membrane binding assay
Conditions: competition against 33P 2MeS-ADP; membranes of CHO cells with recombinant human P2Y12 receptor; read-out: inhibition MeSADP binding P2Y12, IC 50
Procedure: Human P2Y12 Recombinant Cell Membrane Binding Assay
The ability of a test compound to bind to the P2Y12 receptor was evaluated in a recombinant cell membrane binding assay. In this competitive binding assay, the test compound competed against a radiolabeled agonist for binding to the P2Y12 receptor, expressed on the cell membrane. Inhibition of binding of the labeled material was measured and correlated to the amount and potency of the test compound. This binding assay is a modification of the procedure described by Takasaki, J. et. al, Mol. Pharmacol., 2001, Vol. 60, pg. 432.
As source of P2Y12, a membrane preparation was prepared from Chinese Hamster Ovary (CHO) cells with recombinant expression of the human P2Y12 receptor according to standard procedures.
To a 96-well microtiterplate the following were added: a) 24 μl of assay buffer (10 mM HEPES, 138 mM NaCl, […] KCl, 12 mM NaHCO3, 1 mM EDTA-Na, 0.1% BSA, pH 7.4) b) 1 μL compound in DMSO c) 50 μL P2Y12 CHO membrane (20 μg/ml) and after 15 min at RT d) 25 μL of 1.61 nM ^33P 2MeS— ADP (Perkin Elmer NEN custom synthesis, specific activity ˜2100 Ci/mmol) made in assay buffer.
After 20 min incubation at RT samples were transferred to 96-well microtiter filterplates (Millipore HTS GF/B), pre-wetted for 20 min with 300 μL of stop buffer (10 mM HEPES, 138 mM NaCl pH 7.4) and then filtered through completely with a Millipore plate vacuum. Next, wells were washed four times with 400 μl/well of stop buffer on a plate vacuum. The plate was disassembled and allowed to air dry overnight with the filter side up over night. The filter plates were snapped into adapter plates and 0.1 mL of Microscint 20 Scintillation Fluid (Perkin Elmer #6013621) was added to each well. The top of the filterplate was sealed with plastic plate covers. The sealed filterplate were incubated 2 hours at room temperature. A Microbeta Scintillation Counter was used to measure counts. The binding of compound is expressed as a % inhibition of specific binding, defined by subtraction of the background with 1 mM ADP. Compounds were diluted as 10 mM DMSO stocks and tested in a four-point, five-fold dilution series run in triplicate beginning at 10 μM, final concentration. Data were analyzed using a four-parameter curve fit with a fixed minimum and maximum experimentally defined as the average positive and negative controls on each plate.

T1 sequence (Q9H244 whole entry): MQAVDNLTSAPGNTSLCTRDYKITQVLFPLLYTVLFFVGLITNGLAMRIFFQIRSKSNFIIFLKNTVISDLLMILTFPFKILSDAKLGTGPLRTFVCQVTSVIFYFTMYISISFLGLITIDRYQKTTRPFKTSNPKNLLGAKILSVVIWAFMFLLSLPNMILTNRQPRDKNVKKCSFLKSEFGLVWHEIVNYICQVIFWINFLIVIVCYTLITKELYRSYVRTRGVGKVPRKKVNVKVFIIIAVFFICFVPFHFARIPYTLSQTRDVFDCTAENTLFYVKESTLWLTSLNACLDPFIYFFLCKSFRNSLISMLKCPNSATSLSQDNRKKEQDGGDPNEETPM

| SMILES | IC50 [nM] |
| --- | --- |
| Cc1[nH]c(-c2ccccc2)cc1C(=O)C(=O)N1CCN(c2cccc(C(F)(F)F)c2)CC1 [Example 1, 1-(2-Methyl-5-phenyl-1H-pyrrol-3-yl)-2-[4-(3-trifluoromethyl-phenyl)-piperazin-1-yl]-ethane-1,2-dione] | 500 |
| Cc1[nH]c(-c2ccccc2)cc1C(=O)C(=O)N1CCN(c2ccc(Cl)c(C(F)(F)F)c2)CC1 [Example 10, 1-[4-(4-Chloro-3-trifluoromethyl-phenyl)-piperazin-1-yl]-2-(2-methyl-5-phenyl-1H-pyrrol-3-yl)-ethane-1,2-dione] | 700 |
| CCOC(=O)c1cccc(N2CCN(C(=O)C(=O)c3cc(-c4ccccc4)[nH]c3C)CC2)c1 [Example 33, 3-{4-[2-(2-Methyl-5-phenyl-1H-pyrrol-3-yl)-2-oxo-acetyl]-piperazin-1-yl}-benzoic acid ethyl ester] | 170 |
| Cc1[nH]c(-c2ccccc2)cc1C(=O)C(=O)N1CCC(C(=O)c2ccc(Br)cc2)CC1 [Example 51, 1-[4-(4-Bromo-benzoyl)-piperidin-1-yl]-2-(2-methyl-5-phenyl-1H-pyrrol-3-yl)-ethane-1,2-dione] | 710 |

More lines, now with the values ahead:

| IC50 [nM] | SMILES |
| --- | --- |
| 520 | Cc1[nH]c(-c2ccccc2)cc1C(=O)C(=O)N1CCC(C(=O)c2cccc(Cl)c2)CC1 [Example 52, 1-[4-(3-Chloro-benzoyl)-piperidin-1-yl]-2-(2-methyl-5-phenyl-1H-pyrrol-3-yl)-ethane-1,2-dione] |
| 30 | Cc1[nH]c(-c2ccccc2)c(/C=C/C(=O)O)c1C(=O)C(=O)N1CCN(c2cccc(C(F)(F)F)c2)CC1 [Example 71, (E)-3-(5-Methyl-4-{2-oxo-2-[4-(3-trifluoromethyl-phenyl)-piperazin-1-yl]-acetyl}-2-phenyl-1H-pyrrol-3-yl)-acrylic acid] |
